From ChEMBL document CHEMBL3046796, “Evaluation of a new lead for acetylcholinesterase inhibition” (Med Chem Res, 2009)

Assays:
[1] = target: Cholinesterase (Equus caballus) (UniProt P81908); assay: Inhibition of Equus caballus (horse) serum butyrylcholinesterase (BChE) at 10 '-5 M by Ellman method
[2] = target: Cholinesterase (Equus caballus) (UniProt P81908); assay: Inhibition of Equus caballus (horse) serum butyrylcholinesterase (BChE) at 10 '-4 M by Ellman method
[3] = target: Acetylcholinesterase (Electrophorus electricus) (UniProt O42275); assay: Inhibition of Electrophorus electricus (electric eel) acetylcholinesterase (AChE) using […] as substrate at 10 '-5 M by Ellman method
Sequence of Acetylcholinesterase (Electrophorus electricus) (O42275 24-633 limits assumed): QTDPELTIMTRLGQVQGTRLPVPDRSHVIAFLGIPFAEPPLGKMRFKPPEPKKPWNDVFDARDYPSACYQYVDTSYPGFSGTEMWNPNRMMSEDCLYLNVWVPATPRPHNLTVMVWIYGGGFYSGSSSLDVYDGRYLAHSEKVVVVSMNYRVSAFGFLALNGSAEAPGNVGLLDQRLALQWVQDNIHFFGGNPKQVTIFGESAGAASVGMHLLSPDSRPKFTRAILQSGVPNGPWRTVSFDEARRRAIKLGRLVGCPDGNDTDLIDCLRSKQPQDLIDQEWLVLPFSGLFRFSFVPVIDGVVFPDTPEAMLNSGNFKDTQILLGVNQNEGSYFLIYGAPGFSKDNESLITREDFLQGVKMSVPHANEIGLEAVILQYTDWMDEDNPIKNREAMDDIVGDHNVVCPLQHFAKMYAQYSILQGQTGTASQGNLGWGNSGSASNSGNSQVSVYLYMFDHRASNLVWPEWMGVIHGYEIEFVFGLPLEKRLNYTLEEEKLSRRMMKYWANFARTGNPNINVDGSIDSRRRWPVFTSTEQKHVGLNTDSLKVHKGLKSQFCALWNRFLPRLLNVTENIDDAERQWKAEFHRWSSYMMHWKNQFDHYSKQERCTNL

Acetylcholinesterase = Acetylcholinesterase (Electrophorus electricus, UniProt O42275); assay: Inhibition of Electrophorus electricus (electric eel) acetylcholinesterase (AChE) using […] as substrate by Ellman method
Sequence of Acetylcholinesterase (O42275 whole entry): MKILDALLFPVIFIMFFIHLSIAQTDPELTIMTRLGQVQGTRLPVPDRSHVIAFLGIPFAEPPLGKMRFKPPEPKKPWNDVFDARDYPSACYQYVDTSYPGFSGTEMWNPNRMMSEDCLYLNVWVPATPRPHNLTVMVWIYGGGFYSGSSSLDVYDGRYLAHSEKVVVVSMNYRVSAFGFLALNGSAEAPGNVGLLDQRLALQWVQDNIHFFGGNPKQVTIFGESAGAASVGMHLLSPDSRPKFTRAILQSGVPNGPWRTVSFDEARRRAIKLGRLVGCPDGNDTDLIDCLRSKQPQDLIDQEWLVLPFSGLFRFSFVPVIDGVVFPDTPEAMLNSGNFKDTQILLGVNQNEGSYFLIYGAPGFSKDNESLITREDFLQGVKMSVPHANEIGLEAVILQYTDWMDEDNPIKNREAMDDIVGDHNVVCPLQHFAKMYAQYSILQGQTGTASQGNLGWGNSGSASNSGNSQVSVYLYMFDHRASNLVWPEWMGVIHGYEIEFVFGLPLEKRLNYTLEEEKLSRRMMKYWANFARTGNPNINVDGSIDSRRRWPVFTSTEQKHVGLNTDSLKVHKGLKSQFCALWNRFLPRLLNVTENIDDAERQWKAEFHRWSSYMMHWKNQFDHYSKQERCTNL

Sequence of Cholinesterase (Equus caballus) (P81908 whole entry): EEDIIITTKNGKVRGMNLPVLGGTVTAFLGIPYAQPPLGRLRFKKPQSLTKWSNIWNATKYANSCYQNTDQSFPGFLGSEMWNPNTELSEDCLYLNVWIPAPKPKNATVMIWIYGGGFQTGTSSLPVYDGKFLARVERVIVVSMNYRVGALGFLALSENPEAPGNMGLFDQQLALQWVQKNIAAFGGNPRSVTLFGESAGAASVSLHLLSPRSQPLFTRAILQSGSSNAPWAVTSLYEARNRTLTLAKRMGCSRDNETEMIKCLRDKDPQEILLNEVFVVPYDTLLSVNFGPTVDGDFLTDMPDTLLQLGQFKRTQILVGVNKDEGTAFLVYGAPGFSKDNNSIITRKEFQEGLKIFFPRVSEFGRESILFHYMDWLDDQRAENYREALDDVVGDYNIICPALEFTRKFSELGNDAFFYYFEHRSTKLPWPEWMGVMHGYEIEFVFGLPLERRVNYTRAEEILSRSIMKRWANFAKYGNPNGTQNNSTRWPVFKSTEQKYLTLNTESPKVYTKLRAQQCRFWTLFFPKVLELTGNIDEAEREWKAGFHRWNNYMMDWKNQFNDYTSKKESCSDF

| SMILES | inhibition [1] [%] | inhibition [2] [%] | inhibition [3] [%] | IC50 (Acetylcholinesterase) [µM] |
| --- | --- | --- | --- | --- |
| COc1ccc(CC2NCCc3cc(OC)c(OC)cc32)cc1OC (stereo not drawn) | 5.2 | 17.4 | 9 |  |
| COc1ccc(CC2=NCCc3cc(OC)c(OC)cc32)cc1OC | 0 | 18 | 53 | 7 |
| COc1ccc(C(O)c2nccc3cc(OC)c(OC)cc23)cc1OC (stereo not drawn) |  |  |  | 10.7 |
| COc1ccc(Cc2nccc3cc(OC)c(OC)cc23)cc1OC [PAPAVERINE] |  |  |  | 24.3 |
| COc1ccc(C(=O)c2nccc3cc(OC)c(OC)cc23)cc1OC |  |  | 2.3 |  |
| COc1ccc(CCNC(=O)Cc2ccc(OC)c(OC)c2)cc1OC | 0 | 1.7 | 5.9 |  |
